Legend:
[1] = tested on: patient-derived mucosal melanoma cells; assay: Drug testing on patient-derived 3D tumor organoids in the perfusion system; type: cell-based, human; settings: 96-well 3D tumor organoids with patient-derived PBMCs, FIG. 7
Method: (§1) Blood and tissue samples from a mucosal melanoma, a patient having the following characteristics: • person, malignant mucosal melanoma. • Tissue site: resected from the groin lymph node
96-well 3D tumor organoids were generated from the tumor sample (i.e. tumor cells and microenvironment cells, blood vessels and PBMCs were created from the samples. The tumor organoids were cultured in a plate similar to that shown in FIG. 1A. Each treatment was tested on multiple 3D organoids, each treatment corresponding to a single sequence of connected cell wells.
Multiple treatments and combinations were tested on the patient-derived mucosal melanoma cells and the patient-derived PBMCs, as summarized in FIG. 7.

[2] = tested on: malignant mucosal melanoma; assay: Clinical treatment of the mucosal melanoma patient; type: in vivo, human
Text: as §1
This was followed by additional cycles of nivolumab post-surgery as adjuvant therapy resulting in further PD.
The perfusion system could have anticipated the unfavorable prognosis associated with Nivolumab (which was what was originally prescribed by the doctor) within 1-2 weeks, potentially sparing the patient six months of ineffective treatment, side effects, and the high costs as well as the time in which further mutations occurred.

Atezolizumab
response [1]: 0%

Nivolumab
response [1]: 0% | clinical outcome ([2]; additional cycles post-surgery as adjuvant therapy): further PD | clinical outcome ([2]; neoadjuvant therapy, 4 cycles): progressive disease (PD)

CNC(=O)c1cc(Oc2ccc(NC(=O)Nc3ccc(Cl)c(C(F)(F)F)c3)c(F)c2)ccn1 [Regorafenib]
efficacy [1]: 93% | reduction in tumor size ([2]; within a two-week timeframe): 50%

Pembrolizumab
response [1]: 0%
